Assay results published in patent US20230233533A1, “COMPOSITIONS, METHODS OF TREATING AND PREVENTING FUNGAL INFECTIONS, AND METHODS OF INHIBITING PRP8 INTEIN EXPRESSION” (Health Research, Inc., priority 2020, published 2023).

Experiments:
[1] = target: T1, papain (Carica papaya, UniProt P00784); assay: Papain protease inhibition (Abz FRET substrate); assay type: biochemical; conditions: compound at 400 μM
T1 construct: purchased Sigma-Aldrich
T1 sequence (P00784 134-345): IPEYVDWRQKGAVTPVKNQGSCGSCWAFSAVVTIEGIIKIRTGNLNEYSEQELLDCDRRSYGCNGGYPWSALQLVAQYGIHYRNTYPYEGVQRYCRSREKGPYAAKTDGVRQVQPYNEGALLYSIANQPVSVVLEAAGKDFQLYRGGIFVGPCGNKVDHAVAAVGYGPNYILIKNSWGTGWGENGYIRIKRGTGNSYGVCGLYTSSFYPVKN
Experimental: Trypsin and papain protease inhibition—An Abz FRET substrate (Abz-RRRRSAG-nTyr) developed previously (Li et al., “Existing Drugs as Broad-Spectrum and Potent Inhibitors for Zika Virus by Targeting NS2B-NS3 Interaction,” Cell Research 27(8):1046-1064 (2017), which is hereby incorporated by reference in its entirety) was used as the substrate for inhibition of trypsin and papain proteases. In black and clear-bottom 96-well plates, 1 μg trypsin (Sigma-Aldrich) was incubated with DMF or compounds at 400 μM at 25° C. for 30 min in a 70 μl reaction buffer containing 20 mM Tris, pH 8.0, 100 mM NaCl, 5% Glycerol, and 0.05% CHAPS. For papain, 1 μg Papain (Sigma-Aldrich) was incubated with compounds at 400 μM at 25° C. for 30 min in a 70 μl reaction buffer composed of 1.1 mM EDTA, 0.067 mM β-mercaptoethanol, 5.5 mM cysteine. […]

[2] = test system: Prp8 intein; assay: Western blot of Prp8 intein splicing in C. neoformans H99; assay type: cell-based; conditions: 0.32 μg/ml, 3 h post-treatment
Experimental: Western blot (WB)—Fresh colonies of Cryptococcus neoformans were grown in yeast extract peptone dextrose (YPD) broth in an environmental shaker (250 rpm) overnight at 30° C. The fungal cells (5 ml) were diluted in 125 ml YPD broth and grown for 1.5 h to a final cell density of 0.2 at OD530. The cells were distributed to test tubes (3 ml/tube). Then 3 ml of YPD medium containing DMF or 2-fold diluted compounds was added to the cells. The mixtures were incubated at 30° C. in a shaker at 250 RPM for up to 18 h. Samples were spun down and pellets were frozen for WB analysis.
Cryptococcal cells treated with DMF or compounds were washed twice with PBS buffer. Cells were spun down and supernatant was removed. For a 6-ml cell pellet, 30 μl of complete protease inhibitor cocktail in PBS was added to the cells, followed by addition of 400 μl lysis buffer (50 mM Tris, pH 8.0, 500 mM NaCl, 10% glycerol) and 500 μl glass beads. The fungal cells were lysed by rigorous beating for 2 min 3 times. The cell lysate was spun down. Supernatant was mixed with SDS-PAGE loading buffer (1:1). The mixtures were boiled at 95° C. for 10 min, followed by centrifugation at 15,000 rpm for 10 min. Samples were analyzed using 12% SDS-PAGE. The separated samples were blotted to a PVDF membrane and subjected to WB analysis using an antibody against the Prp8 intein. […]

[3] = target: C1A/H62A/D95A/H169A (AAAA) Prp8 intein mutant; assay: Surface plasmon resonance (SPR), AAAA mutant; assay type: binding, Cryptococcus gattii
Experimental: The Prp8 intein and mutants were immobilized onto a ProteOn™ GLH sensor chip (2,500-7,000 RU) (Bio-Rad). A 3-fold dilution series of compounds was injected as the analytes. A blank surface blocked by ethanolamine was used as the control surface. The experiment was carried out at a flow rate of 100 μl/min using a PBSTD buffer containing 1×PBS, 0.005% surfactant P20, and 5% DMSO. Association (ka) and dissociation (kd) rates, as well as the dissociation constant (KD), were obtained by global fitting of the SPR data from multiple concentrations to a simple 1:1 Langmuir binding model, using the ProteOn Manager software suite (Bio-Rad).

[4] = test system: C. neoformans H99 strain transformed with empty vector, WT Prp8 or AAAA mutant; assay: Resistance study, MIC in H99 overexpressing Prp8 intein; assay type: cell-based, Cryptococcus neoformans
Experimental: For resistance studies, C. neoformans H99 strain transformed with an empty pXL1-PTEF1 vector, the Prp8-pXL1-PTEF1 (WT Prp8) construct, or the AAAA mutant were used, as described. Li et al., “Cisplatin Protects Mice From Challenge of Cryptococcus Neoformans by Targeting the Prp8 Intein,” Emerging Microbes & Infections 8(1):895-908 (2019), which is hereby incorporated by reference in its entirety. MICs for selected compounds were determined for these transformed cells as described above.

Question: What does the source list for `O=C(Nc1ccc(F)cc1)c1nnsc1S(=O)(=O)c1ccc(Cl)cc1` [6G-318S, 5-[(4-chlorophenyl)sulfonyl]-N-(4-fluorophenyl)-1,2,3-thiadiazole-4-carboxamide]?
Answer: inhibition of papain protease activity [1]: neither 6G-318S, 6G-319S, nor cisplatin significantly inhibited; inhibition of Prp8 splicing in vivo in C. neoformans [2]: completely inhibited Prp8 splicing; KD AAAA [3]: completely lost binding affinity; MIC with empty vector or AAAA mutant Prp8 intein-transformed H99 cells [4]: identical MIC values; increase of MIC in H99 transformed with WT Prp8 intein ([4]; compared to H99 with empty vector or AAAA mutant): 4 fold
